Usually EC50 stands for the midpoint of the concentration-response curve. Low readings indicate greater potency, high ones weaker potency.

In the experiment the target is T1, human κ opioid receptors (Homo sapiens, UniProt P41145).
T1 construct: host or cells: CHO cells
The experiment in a line: Opioid receptor function test (Lance Ultra cAMP kit, agonist activity). Type of experiment: cell-based. To be noted: CHO cells expressing human κ opioid receptors, 10 μM forskolin, 30 minutes. How it is done: Opioid Receptor Function Test
The function activity of the compound of the present invention on κ opioid receptors was examined.
Method: Using a Lance Ultra cAMP kit (Perkin Elmer), the examination was performed according to a predetermined method. In evaluation of agonist activity, CHO cells expressing human κ opioid receptors (Catalog No. CT6606, accession No. NM_000912) and a test compound were reacted in an assay buffer (1×HSS, 5 mM HEPES, pH 7.4, 0.5 mM IBMX (isobutylmethyixanthine), 0.1% SA) in the presence of 10 μM forskolin for 30 minutes. Subsequently, a cAMP detection reagent in the kit was added. One hour later, time-resolved fluorescence measurement was performed using an EnVision plate reader (Perkin Elmer). The evaluation of the test compound was performed in a concentration range of 10^−14 to 10^−7 M for the κ opioid receptor function test.

T1 sequence (P41145 whole entry): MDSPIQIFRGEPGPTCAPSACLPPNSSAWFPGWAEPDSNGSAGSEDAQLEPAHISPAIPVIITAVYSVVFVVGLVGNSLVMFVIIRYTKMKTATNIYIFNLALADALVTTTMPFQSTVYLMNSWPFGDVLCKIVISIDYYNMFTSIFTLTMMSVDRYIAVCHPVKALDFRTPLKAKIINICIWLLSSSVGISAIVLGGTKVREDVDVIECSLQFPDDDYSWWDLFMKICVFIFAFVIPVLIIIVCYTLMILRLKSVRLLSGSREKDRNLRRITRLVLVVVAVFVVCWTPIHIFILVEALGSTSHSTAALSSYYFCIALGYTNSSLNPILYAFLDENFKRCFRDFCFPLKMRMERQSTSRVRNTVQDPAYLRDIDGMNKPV

Regarding `Oc1ccc2c(c1)[C@@]13CCN(CC4(c5ccccn5)CC4)CC[C@@]1(O)[C@@H](C2)N(CC1CC1)CC3` [Example 108, (5aS,6R,11bS)-14-(cyclopropylmethyl)-3-((1-(pyridin-2-yl)cyclopropyl)methyl)-2,3,4,5,6,7-hexahydro-6,11b-(epiminoethano)naphtho[1,2-d]azepine-5a,10(1H)-diol], the EC50 was determined as 0.066 nM.

Consider `Cc1cc2c(cc1O)[C@@]13CCN(C(=O)Cc4n[nH]c5ccccc45)CC[C@@]1(O)[C@@H](C2)N(CC1CC1)CC3` [Example 357, 1-((5aS,6R,11bR)-14-(cyclopropylmethyl)-5a,10-dihydroxy-9-methyl-1,2,5,5a,6,7-hexahydro-6,11b-(epiminoethano)naphtho[1,2-d]azepin-3(4H)-yl)-2-(1H-indazol-3-yl)ethan-1-one], for which the EC50 was 0.062 nM.

`Oc1ccc2c(c1)[C@@]13CCN(CCc4cc5ccccn5n4)CC[C@@]1(O)[C@@H](C2)N(CC1CC1)CC3` [Example 118, (5aS,6R,11bS)-14-(cyclopropylmethyl)-3-(2-(pyrazolo[1,5-a]pyridin-2-yl)ethyl)-2,3,4,5,6,7-hexahydro-6,11b-(epiminoethano)naphtho[1,2-d]azepine-5a,10(1H)-diol]: a half-maximal effect (EC50) was put at 0.016 nM.

Regarding `CC(C)c1cn(CC(=O)N2CC[C@]34CCN(CC5CC5)[C@H](Cc5ccc(O)cc53)[C@]4(O)CC2)nn1` [Example 165, 1-((5aS,6R,11bR)-14-(cyclopropylmethyl)-5a,10-dihydroxy-1,2,5,5a,6,7-hexahydro-6,11b-(epiminoethano)naphtho[1,2-d]azepin-3(4H)-yl)-2-(4-isopropyl-1H-1,2,3-triazol-1-yl)ethan-1-one], a half-maximal response (EC50) required 0.28 nM.

Consider `Oc1ccc2c(c1)[C@@]13CCN(CCc4n[nH]c5ccccc45)CC[C@@]1(O)[C@@H](C2)N(CC1CC1)CC3` [Example 112, (5aS,6R,11bS)-3-(2-(1H-indazol-3-yl)ethyl)-14-(cyclopropylmethyl)-2,3,4,5,6,7-hexahydro-6,11b-(epiminoethano)naphtho[1,2-d]azepine-5a,10(1H)-diol], for which the response was half-maximal at 0.037 nM (EC50).

`Oc1ccc2c(c1)[C@@]13CCN(CCn4cc(C5CC5)cn4)CC[C@@]1(O)[C@@H](C2)N(CC1CC1)CC3` [Example 183, (5aS,6R,11bS)-3-(2-(4-cyclopropyl-1H-pyrazol-1-yl)ethyl)-14-(cyclopropylmethyl)-2,3,4,5,6,7-hexahydro-6,11b-(epiminoethano)naphtho[1,2-d]azepine-5a,10(1H)-diol] had an EC50 of 0.03 nM.

Turning to `Cc1cnn(CCN2CC[C@]34CCN(CC5CC5)[C@H](Cc5ccc(OC(=O)C(C)(C)C)cc53)[C@]4(O)CC2)c1` [Example 238, (5aS,6R,11bS)-14-(cyclopropylmethyl)-5a-hydroxy-3-(2-(4-methyl-1H-pyrazol-1-yl)ethyl)-1,2,3,4,5,5a,6,7-octahydro-6,11b-(epiminoethano)naphtho[1,2-d]azepin-10-yl pivalate], the EC50 was 0.45 nM.

In turn, `Oc1ccc2c(c1)[C@@]13CCN(CCc4cccc(C(F)(F)F)n4)CC[C@@]1(O)[C@@H](C2)N(CC1CC1)CC3` [Example 88, (5aS,6R,11bS)-14-(cyclopropylmethyl)-3-(2-(6-(trifluoromethyl)pyridin-2-yl)ethyl)-2,3,4,5,6,7-hexahydro-6,11b-(epiminoethano)naphtho[1,2-d]azepine-5a,10(1H)-diol] yielded an EC50 of 0.75 nM.

Take `NC(=O)c1ccc2c(c1)[C@@]13CCN(C(=O)Cc4n[nH]c5ccccc45)CC[C@@]1(O)[C@@H](C2)N(CC1CC1)CC3` [Example 265, (5aS,6R,11bR)-3-(2-(1H-indazol-3-yl)acetyl)-14-(cyclopropylmethyl)-5a-hydroxy-1,2,3,4,5,5a,6,7-octahydro-6,11b-(epiminoethano)naphtho[1,2-d]azepine-10-carboxamide]: the concentration giving a half-maximal response (EC50) worked out at 0.12 nM.

`O=C(Cc1n[nH]c2ccccc12)N1CC[C@]23CCN(CC4CC4)[C@H](Cc4ccc(O)cc42)[C@]3(O)CC1` [Example 114, 1-((5aS,6R,11bR)-14-(cyclopropylmethyl)-5a,10-dihydroxy-1,2,5,5a,6,7-hexahydro-6,11b-(epiminoethano)naphtho[1,2-d]azepin-3(4H)-yl)-2-(1H-indazol-3-yl)ethan-1-one] displayed an EC50 of 0.043 nM.

`Oc1ccc2c(c1)[C@@]13CCN(CCc4cc5ccccc5cn4)CC[C@@]1(O)[C@@H](C2)N(CC1CC1)CC3` [Example 123, (5aS,6R,11bS)-14-(cyclopropylmethyl)-3-(2-(isoquinolin-3-yl)ethyl)-2,3,4,5,6,7-hexahydro-6,11b-(epiminoethano)naphtho[1,2-d]azepine-5a,10(1H)-diol]: the EC50 came to 0.064 nM.

In turn, `O=C(Cn1cc(Br)cn1)N1CC[C@]23CCN(CC4CC4)[C@H](Cc4ccc(O)cc42)[C@]3(O)CC1` [Example 60, 2-(4-bromo-1H-pyrazol-1-yl)-1-((5aS,6R,11bR)-14-(cyclopropylmethyl)-5a,10-dihydroxy-1,2,5,5a,6,7-hexahydro-6,11b-(epiminoethano)naphtho[1,2-d]azepin-3(4H)-yl)ethan-1-one] returned an EC50 of 0.056 nM.

In turn, `Cc1cnn(CCN2CC[C@]34CCN(CC5(C)CC5)[C@H](Cc5ccc(O)cc53)[C@]4(O)CC2)c1` [Example 221, (5aS,6R,11bS)-3-(2-(4-methyl-1H-pyrazol-1-yl)ethyl)-14-((1-methylcyclopropyl)methyl)-2,3,4,5,6,7-hexahydro-6,11b-(epiminoethano)naphtho[1,2-d]azepine-5a,10(1H)-diol] had an EC50 of 0.034 nM.

For `C[Si]1(C)CCN(CC(=O)N2CC[C@]34CCN(CC5CC5)[C@H](Cc5ccc(O)cc53)[C@]4(O)CC2)CC1` [Example 132, 1-((5aS,6R,11bR)-14-(cyclopropylmethyl)-5a,10-dihydroxy-1,2,5,5a,6,7-hexahydro-6,11b-(epiminoethano)naphtho[1,2-d]azepin-3(4H)-yl)-2-(4,4-dimethyl-1,4-azasilinan-1-yl)ethan-1-one], the concentration for a half-maximal effect (EC50) worked out at 0.16 nM.

`O=C(CCn1cc(C(F)(F)F)cn1)N1CC[C@]23CCN(CC4CC4)[C@H](Cc4ccc(O)cc42)[C@]3(O)CC1` [Example 169, 1-((5aS,6R,11bR)-14-(cyclopropylmethyl)-5a,10-dihydroxy-1,2,5,5a,6,7-hexahydro-6,11b-(epiminoethano)naphtho[1,2-d]azepin-3(4H)-yl)-3-(4-(trifluoromethyl)-1H-pyrazol-1-yl)propan-1-one]: the EC50 is 0.094 nM.

For the molecule `Cn1nc(CCN2CC[C@]34CCN(CC5CC5)[C@H](Cc5ccc(O)cc53)[C@]4(O)CC2)c2ccccc21` [Example 113, (5aS,6R,11bS)-14-(cyclopropylmethyl)-3-(2-(1-methyl-1H-indazol-3-yl)ethyl)-2,3,4,5,6,7-hexahydro-6,11b-(epiminoethano)naphtho[1,2-d]azepine-5a,10(1H)-diol], the response was half-maximal at 0.56 nM (EC50).

`Cc1cnn(CCN2CC[C@]34CCN(CC5(F)CC5)[C@H](Cc5ccc(O)cc53)[C@]4(O)CC2)c1` [Example 226, (5aS,6R,11bS)-14-((1-fluorocyclopropyl)methyl)-3-(2-(4-methyl-1H-pyrazol-1-yl)ethyl)-2,3,4,5,6,7-hexahydro-6,11b-(epiminoethano)naphtho[1,2-d]azepine-5a,10(1H)-diol]: a half-maximal effect (EC50) was put at 0.017 nM.

On to `Oc1ccc2c(c1)[C@@]13CCN(CCn4ccc(C(F)(F)F)n4)CC[C@@]1(O)[C@@H](C2)N(CC1CC1)CC3` [Example 54, (5aS,6R,11bS)-14-(cyclopropylmethyl)-3-(2-(3-(trifluoromethyl)-1H-pyrazol-1-yl)ethyl)-2,3,4,5,6,7-hexahydro-6,11b-(epiminoethano)naphtho[1,2-d]azepine-5a,10(1H)-diol], for which the EC50 came to 0.36 nM.

In turn, `Cc1ccnn1CCN1CC[C@]23CCN(CC4CC4)[C@H](Cc4ccc(O)cc42)[C@]3(O)CC1` [Example 52, (5aS,6R,11bS)-14-(cyclopropylmethyl)-3-(2-(5-methyl-1H-pyrazol-1-yl)ethyl)-2,3,4,5,6,7-hexahydro-6,11b-(epiminoethano)naphtho[1,2-d]azepine-5a,10(1H)-diol] yielded an EC50 of 0.15 nM.

`CC(C)c1cnn(CCN2CC[C@]34CCN(CC5CC5)[C@H](Cc5ccc(O)cc53)[C@]4(O)CC2)c1` [Example 195, (5aS,6R,11bS)-14-(cyclopropylmethyl)-3-(2-(4-isopropyl-1H-pyrazol-1-yl)ethyl)-2,3,4,5,6,7-hexahydro-6,11b-(epiminoethano)naphtho[1,2-d]azepine-5a,10(1H)-diol] displayed a concentration for a half-maximal effect (EC50) of 0.023 nM.

Take `Cc1cnn(CCN2CC[C@]34CCN(CC5(O)CC5)[C@H](Cc5ccc(O)cc53)[C@]4(O)CC2)c1` [Example 225, (5aS,6R,11bS)-14-((1-hydroxycyclopropyl)methyl)-3-(2-(4-methyl-1H-pyrazol-1-yl)ethyl)-2,3,4,5,6,7-hexahydro-6,11b-(epiminoethano)naphtho[1,2-d]azepine-5a,10(1H)-diol]: the EC50 was found to be 0.11 nM.

Consider `Oc1ccc2c(c1)[C@@]13CCN(CCn4cc5ccccc5n4)CC[C@@]1(O)[C@@H](C2)N(CC1CC1)CC3` [Example 120, (5aS,6R,11bS)-3-(2-(2H-indazol-2-yl)ethyl)-14-(cyclopropylmethyl)-2,3,4,5,6,7-hexahydro-6,11b-(epiminoethano)naphtho[1,2-d]azepine-5a,10(1H)-diol], for which the EC50 turned out to be 0.053 nM.

Molecule `Oc1ccc2c(c1)[C@@]13CCN(CCc4cc[nH]n4)CC[C@@]1(O)[C@@H](C2)N(CC1CC1)CC3` [Example 27, (5aS,6R,11bS)-3-(2-(1H-pyrazol-3-yl)ethyl)-14-(cyclopropylmethyl)-2,3,4,5,6,7-hexahydro-6,11b-(epiminoethano)naphtho[1,2-d]azepine-5a,10(1H)-diol] came in with an EC50 of 0.13 nM.
